From PubChem BioAssay AID328 (DTP/NCI, 2004)
“And” between values parts separate entries of the source, which are not always exact repeats. Equal values may be shown once. Inconclusive results and toxic doses are left out.

Tested on: BDF1 mice, P388 leukemia ip, median survival T/C
Assay: NCI In Vivo Anticancer Drug Screen. Data for tumor model P388 Leukemia (intraperitoneal) in B6D2F1 (BDF1) mice
Settings: endpoint: median survival time, higher = longer survival
In short: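 Antitumour effect was judged in vivo: survival in drug-treated mice, normalised to that of vehicle-dosed controls, gives the reported T/C.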

[1] = dose: 6.25 mg/kg/injection, schedule: Q01DX009 (ip), vehicle: saline with Tween-80
[2] = dose: 50.0 mg/kg/injection, schedule: Q01DX009 (ip), vehicle: saline
[3] = dose: 100.0 mg/kg/injection, schedule: Q01DX009 (ip), vehicle: saline
[4] = dose: 100.0 mg/kg/injection, schedule: Q04DX003 (ip), vehicle: saline
[5] = dose: 200.0 mg/kg/injection, schedule: Q04DX003 (ip), vehicle: saline
[6] = dose: 400.0 mg/kg/injection, schedule: Q04DX003 (ip), vehicle: saline
[7] = dose: 100.0 mg/kg/injection, schedule: Q04DX003 (ip), vehicle: saline with Tween-80
[8] = dose: 200.0 mg/kg/injection, schedule: Q04DX003 (ip), vehicle: saline with Tween-80
[9] = dose: 50.0 mg/kg/injection, schedule: Q01DX009 (ip), vehicle: saline with Tween-80
[10] = dose: 100.0 mg/kg/injection, schedule: Q01DX009 (ip), vehicle: saline with Tween-80
[11] = dose: 200.0 mg/kg/injection, schedule: Q01DX009 (ip), vehicle: saline with Tween-80

## CC(C1CCC/C(=N\NC(N)=O)C1)[N+](=O)[O-] (centres undefined)
dose: 0.19 mg/kg/injection, schedule: Q01DX009 (ip), vehicle: saline with Tween-80
  T/C: 103 % of control
dose: 0.39 mg/kg/injection, schedule: Q01DX009 (ip), vehicle: saline with Tween-80
  T/C: 101 % of control and 102 % of control and 119 % of control
dose: 0.78 mg/kg/injection, schedule: Q01DX009 (ip), vehicle: saline with Tween-80
  T/C: 95 % of control and 99 % of control
dose: 1.56 mg/kg/injection, schedule: Q01DX009 (ip), vehicle: saline with Tween-80
  T/C: 96 % of control and 100 % of control and 109 % of control
dose: 3.12 mg/kg/injection, schedule: Q01DX009 (ip), vehicle: saline with Tween-80
  T/C: 93 % of control and 108 % of control and 113 % of control
[1]
  T/C: 92 % of control and 94 % of control

## CC(C)(CCC(C)(C)NCCC#N)NCCC#N
[2]
  T/C: 97 % of control and 104 % of control
[3]
  T/C: 101 % of control
[4]
  T/C: 98 % of control
dose: 200.0 mg/kg/injection, schedule: Q01DX009 (ip), vehicle: saline
  T/C: 109 % of control and 119 % of control
[5]
  T/C: 109 % of control
dose: 400.0 mg/kg/injection, schedule: Q01DX009 (ip), vehicle: saline
  T/C: 107 % of control
[6]
  T/C: 114 % of control

## CCO/C=C1\SC(=S)N(c2cccc(OC)c2)C1=O
[7]
  T/C: 122 % of control

## CN(C)C(CC(=O)c1ccccc1)C(=O)O (centres undefined)
dose: 50.0 mg/kg/injection, schedule: Q04DX003 (ip), vehicle: saline sonified
  T/C: 104 % of control

## C[C@]12CC[C@H](O)CC1=CC[C@@H]1[C@@H]2CC[C@]2(C)c3nc4ccccc4cc3C[C@@H]12
[8]
  T/C: 95 % of control

## CCCCCC(CN(C)C)C(O)/C=C\c1ccccc1 (centres undefined)
dose: 3.13 mg/kg/injection, schedule: Q01DX009 (ip), vehicle: saline
  T/C: 100 % of control
dose: 6.25 mg/kg/injection, schedule: Q01DX009 (ip), vehicle: saline
  T/C: 117 % of control
dose: 12.5 mg/kg/injection, schedule: Q01DX009 (ip), vehicle: saline
  T/C: 119 % of control
[2]
  T/C: 104 % of control
[3]
  T/C: 99 % of control

## CC/C(C)=N/Nc1nncn2c1cc1ccccc12
[9]
  T/C: 94 % of control
[10]
  T/C: 100 % of control
[11]
  T/C: 97 % of control

## COc1ccc(C2=C/C(=C3/C(=O)C=C(C)OC3=O)SS2)cc1
[9]
  T/C: 90 % of control
[10]
  T/C: 92 % of control
[11]
  T/C: 97 % of control

## Clc1c(CBr)ccc(CBr)c1Cl
[1]
  T/C: 104 % of control
dose: 6.25 mg/kg/injection, schedule: Q04DX003 (ip), vehicle: saline sonified
  T/C: 100 % of control
dose: 12.5 mg/kg/injection, schedule: Q01DX009 (ip), vehicle: saline with Tween-80
  T/C: 114 % of control
dose: 12.5 mg/kg/injection, schedule: Q04DX003 (ip), vehicle: saline sonified
  T/C: 90 % of control
dose: 25.0 mg/kg/injection, schedule: Q01DX009 (ip), vehicle: saline with Tween-80
  T/C: 123 % of control
dose: 25.0 mg/kg/injection, schedule: Q04DX003 (ip), vehicle: saline sonified
  T/C: 90 % of control

## COC1=C(OC)C(=O)C(C/C=C(\C)CC/C=C(\C)CC/C=C(\C)CC/C=C(\C)CC/C=C(\C)CC/C=C(\C)CC/C=C(\C)CC/C=C(\C)CCC=C(C)C)=C(C)C1=O
dose: 5.0 mg/kg/injection, schedule: Q01DX025 (ip), vehicle: saline with Tween-80
  T/C: 109 % of control
dose: 10.0 mg/kg/injection, schedule: Q01DX025 (ip), vehicle: saline with Tween-80
  T/C: 106 % of control
dose: 20.0 mg/kg/injection, schedule: Q01DX025 (ip), vehicle: saline with Tween-80
  T/C: 104 % of control
dose: 40.0 mg/kg/injection, schedule: Q01DX025 (ip), vehicle: saline with Tween-80
  T/C: 98 % of control

## COC(=O)CC(C)Cc1ccc(OC)c(OC)c1 (centres undefined)
[10]
  T/C: 104 % of control
[7]
  T/C: 95 % of control
[11]
  T/C: 112 % of control
[8]
  T/C: 109 % of control
dose: 400.0 mg/kg/injection, schedule: Q04DX003 (ip), vehicle: saline with Tween-80
  T/C: 109 % of control

## C[C@]12CCC(=O)C=C1CC[C@@H]1[C@@H]2[C@@H](O)C[C@@]2(C)[C@H]1CC[C@]2(O)C(=O)COC(=O)COCC(=O)O
[10]
  T/C: 109 % of control
[11]
  T/C: 109 % of control
dose: 400.0 mg/kg/injection, schedule: Q01DX009 (ip), vehicle: saline with Tween-80
  T/C: 109 % of control

## CC#CCOCC1CO1 (centres undefined)
dose: 66.0 mg/kg/injection, schedule: Q01DX009 (ip), vehicle: saline with Tween-80
  T/C: 160 % of control
[10]
  T/C: 115 % of control
[4]
  T/C: 104 % of control
[5]
  T/C: 100 % of control

## O=S1(=O)N2CN3CN(C2)CN1C3
dose: 12.5 mg/kg/injection, schedule: Q04DX003 (ip), vehicle: Klucel (hydroxypropylcellulose) (HPC)
  T/C: 121 % of control
dose: 50.0 mg/kg/injection, schedule: Q04DX003 (ip), vehicle: Klucel (hydroxypropylcellulose) (HPC)
  T/C: 105 % of control

## CC(C)(CO)Nc1ccccc1
[4]
  T/C: 110 % of control
[5]
  T/C: 100 % of control
[6]
  T/C: 100 % of control
